{
  "source": "paper PMC7503219",
  "about": "(International journal of hematology, 2019)",
  "origin": "cited, not measured here",
  "test_system": "GATA-1low mice",
  "settings": "GATA-1 mouse model of PMF",
  "data": [
    {"smiles": "N#CCCN", "note": "[BAPN, β-aminopropionitrile]", "values": [
      {"measurement": "effect on myelofibrotic phenotype", "result": "reduced the pathogenesis of the myelofibrotic phenotype"}
    ]}
  ]
}
